Consider 2 compounds from patent US12128030B2, “Pharmaceutical composition comprising antiplatelet agent and gastric acid secretion inhibitor” (HK INNO.N CORPORATION, priority 2018, dated 2024).

The conditions of data set [1]: clopidogrel in direct contact with compound of Formula 1; 40° C./RH 75%, four weeks. On the procedure:
A test on blending compatibility with additives was performed in a state, in which clopidogrel was alone and mixed with a compound of Formula 1.
A ratio of additives to main component was adjusted, after which a change of contents and related substances was evaluated under accelerated test conditions (40° C./RH 75%) for four weeks, such that the results thereof are shown in FIGS. 3 to 5.

Data set [2] in a line: Evaluation test on pharmacokinetic drug interactions through nonclinical models. The note with it: beagle dogs; combined administration with clopidogrel. It is filed as in vivo. On the procedure: To determine the effect of esomeprazole (PPI drug) and a compound of Formula 1 on a medicinal effect of clopidogrel, a test on pharmacokinetic drug interactions was performed in such a way that 20 mg of clopidogrel and 20 mg of esomeprazole or 50 mg of the compound of Formula 1 were administered in combination into beagle dogs once or repeatedly (for seven days).
Particularly, clopidogrel was repeatedly administered into ten beagle dogs for seven days, after which esomeprazole and the compound of Formula 1 were administered in combination into those beagle dogs at steady-state for seven days, such that blood was collected therefrom on 5th, 8th and 14th days, to perform a pharmacokinetic analysis before and after the administration.
FIGS. 1 and 2 are graphs of showing a concentration of clopidogrel active metabolites in blood, which was measured after administering esomeprazole and the compound of Formula 1 in combination, respectively.

Turning to `COC(=O)[C@H](c1ccccc1Cl)N1CCc2sccc2C1` [clopidogrel, methyl (+)-(S)-α-(2-chlorophenyl)-6,7-dihydrothieno[3,2-c]pyridine-5(4H)-acetate], the “stability of drug (contents and related substances)” value in data set [1] is reported as “stability of a drug deteriorates”.
For the compound `Cc1nc2c(O[C@H]3CCOc4cc(F)cc(F)c43)cc(C(=O)N(C)C)cc2[nH]1` [compound of Formula 1, (S)-4-[(5,7-difluoro-3,4-dihydro-2H-chromene-4-yl)oxy]-N,N,2-trimethyl-1H-benzimidazole-6-carboxamide], the “risk of drug interactions with clopidogrel” value in data set [2] is listed as “low risk of drug interactions”.
